# Experiments:
# Type in all cases: cell-based
# JR251 or RBL cells = assay: Store-operated calcium entry, either JR251 or RBL cells, or both
# In short: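 Orai1/STIM1 stable cells: fluo-4-AM loaded, compound 30 min at RT in Ca2+-free HBSS, then CaCl2 added; IC50 from Peak-Basal FLIPR fluorescence. RBL-2H3 cells: compound 5 min, then thapsigargin (5.5× stock, 5.5 uM) 25 min, then calcium added; IC50 from Upslope (signal 7 s after calcium minus baseline).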
# [1] = target: T1, recombinant human STIM1 and Orai1 (HEK-293 stable cells; JR251) (Homo sapiens, UniProt Q96D31); assay: Fluorescence-based assay of store-operated calcium entry in Orai1/STIM1 stable cells; conditions: 50% inhibition of Peak-Basal signal
# T1 construct: c-myc (C); expressed in transfected cells
# T1 sequence (Q96D31 whole entry): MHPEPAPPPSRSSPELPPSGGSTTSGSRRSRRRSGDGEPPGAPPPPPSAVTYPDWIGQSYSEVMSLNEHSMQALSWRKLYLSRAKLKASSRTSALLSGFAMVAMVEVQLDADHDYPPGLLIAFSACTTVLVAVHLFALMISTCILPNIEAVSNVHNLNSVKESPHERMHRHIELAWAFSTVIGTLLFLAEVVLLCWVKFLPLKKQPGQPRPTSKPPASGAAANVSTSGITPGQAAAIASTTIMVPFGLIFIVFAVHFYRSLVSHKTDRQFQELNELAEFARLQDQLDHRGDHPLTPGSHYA
# Description: A. Fluorescence-Based Assay of Store-Operated Calcium Entry in Orai1/STIM1 Stable Cells.
# Cells stably expressing recombinant human STIM1 and Orai1 were generated by transfecting a human Orai1 expression plasmid (pcDNA3.1-Orai1-cmyc) into HEK-293 cells stably overexpressing human STIM1 (Roos et al. 2005 JCB 169(3): 435-445). Colonies of cells stably expressing both STIM1 and Orai1 proteins were selected and then subcloned by limiting dilution. Cells were cultured at 37° C./6% CO2 in complete medium with 10% FBS and appropriate selection markers.
# The day prior to performing the assay Orai1/STIM1 stable cells were plated in 50 μL of complete medium at 90-95% confluence in a 384 well plate. Cells were grown at 37° C./6% CO2 overnight. On the day of the assay, 1.5 μM fluo-4-AM (Invitrogen) in complete medium was added to the cells, which were then incubated for 1 hour at RT. Cells were washed once in Ca^2+-free HBSS (Hank's buffered saline solution) and 35 μl of Ca^2+-free HBSS was added to each well. Test compounds were added to wells in a 10 μL Ca^2+-free HBSS solution, prepared at 4.5× the desired final concentration, and incubated for 30 minutes at RT. The initial baseline fluorescence signal was then measured with a FLIPR^384 (Molecular Devices) plate reader. Calcium entry was initiated by adding 5 μl of 10×CaCl2 (10 mM) in HBSS, and changes in cellular fluorescence were measured with the FLIPR^384 plate reader. In each well, the magnitude of the fluorescence signal as a result of calcium entry into the cell was determined by calculating the difference between the peak fluorescence signal measured after calcium addition and the initial baseline fluorescence signal (designated Peak-Basal). IC50 values were typically calculated as the concentration that inhibited 50% of the Peak-Basal signal (Table A).
# RBL-2H3 cells = assay: Fluorescence-based assay of store-operated calcium entry in RBL-2H3 cells; conditions: Rattus norvegicus, 50% inhibition of Upslope, thapsigargin
# Description: B. Fluorescence-Based Assay of Store-Operated Calcium Entry in RBL-2H3Cells.
# RBL-2H3 cells were obtained from ATCC and maintained in complete medium with 10% FBS at 37° C./6% CO2.
# The day prior to performing the assay, RBL-2H3 cells are plated in 50 μL of complete medium in a 384 well plate. Cells are grown at 37° C./6% CO2 overnight and grow to 50-60% confluence by the next day. On the assay day, 1.5 μM Fluo-4-AM dye (Invitrogen) in complete medium is added and incubated for 1 hour at RT. Cells are washed twice in Ca^2+-free HBSS buffer and 35 μL Ca^2+-free HBSS buffer is added to each well. 10 μL of a test compound prepared in a Ca^2+-free HBSS solution at 4.5× of the desired concentration is added to a well and incubated for 5 minutes at RT. 10 μL of thapsigargin prepared in a Ca^2+-free HBSS solution at 5.5× of the desired concentration (5.5 uM) is added to each well and incubated for an additional 25 minutes. The initial baseline fluorescence signal is measured with a FLIPR^384 (Molecular Devices) plate reader. 5 μL of 12× calcium in HBSS (12 mM) is added and changes in cellular fluorescence are measured with the FLIPR^384 plate reader. In each well, the change in the fluorescent signal as a function of time due to calcium entry into the cell is determined by calculating the difference between the fluorescent signal measured 7 seconds after calcium addition and the initial baseline fluorescence signal at time zero (t=0). This parameter is designated Upslope. The IC50 value is calculated as the concentration at which 50% of the Upslope is inhibited.
Structure (SMILES),IC50 (JR251 or RBL cells) [µM],IC50 [1] [µM],IC50 (RBL-2H3 cells) [µM]
O=C(Nc1scc(-c2cc3cccc(-c4cc[nH]n4)c3o2)c1C(=O)O)c1cc2ccccc2o1 [4-(7-(1H-pyrazol-3-yl)benzofuran-2-yl)-2-(benzofuran-2-carboxamido)thiophene-3-carboxylic acid],< 10,–,–
O=C(Nc1scc(-c2cc3cccc(-c4cn[nH]c4)c3o2)c1C(=O)O)c1cc2ccccc2o1 [4-(7-(1H-pyrazol-4-yl)benzofuran-2-yl)-2-(benzofuran-2-carboxamido)thiophene-3-carboxylic acid],< 10,–,–
CC(=O)Oc1cccc2cc(-c3csc(NC(=O)c4cc5ccccc5o4)c3C(=O)O)oc12 [4-(7-acetoxybenzofuran-2-yl)-2-(benzofuran-2-carboxamido)thiophene-3-carboxylic acid],< 10,–,–
"O=C(Nc1scc(-c2cc3cccc(O)c3o2)c1C(=O)O)c1cc2ccccn2n1 [4-(7-hydroxybenzofuran-2-yl)-2-(pyrazolo[1,5-a]pyridine-2-carboxamido)thiophene-3-carboxylic acid]",< 10,–,–
O=C(Nc1scc(OC(=O)c2cc3ccccc3o2)c1C(=O)O)c1cc2ccccc2o1 [4-(benzofuran-2-carbonyloxy)-2-(benzofuran-2-carboxamido)thiophene-3-carboxylic acid],< 10,–,–
O=C(Nc1scc(OC(=O)c2cc3ccccc3o2)c1C(=O)O)OCc1ccccc1 [4-(benzofuran-2-carbonyloxy)-2-(benzyloxycarbonylamino)thiophene-3-carboxylic acid],< 10,–,–
Cc1ccc(-c2csc(NC(=O)/C=C/c3ccco3)c2C(=O)O)cc1 [(E)-2-(3-(furan-2-yl)acrylamido)-4-p-tolylthiophene-3-carboxylic acid],< 10,–,–
O=C(Nc1scc(/C=C/c2ccc(Cl)cc2)c1C(=O)O)c1cc2ccccc2o1 [(E)-2-(benzofuran-2-carboxamido)-4-(4-chlorostyryl)thiophene-3-carboxylic acid],< 10,–,–
O=C(Nc1scc(/C=C/c2ccc(F)cc2)c1C(=O)O)c1cc2ccccc2o1 [(E)-2-(benzofuran-2-carboxamido)-4-(4-fluorostyryl)thiophene-3-carboxylic acid],< 10,–,–
N#C/C(=C\c1ccco1)C(=O)Nc1scc(-c2ccc(Cl)cc2)c1C(=O)O [(E)-4-(4-chlorophenyl)-2-(2-cyano-3-(furan-2-yl)acrylamido)thiophene-3-carboxylic acid],< 10,–,–
N#C/C(=C\c1ccccc1)C(=O)Nc1scc(-c2ccc(Cl)cc2)c1C(=O)O [(E)-4-(4-chlorophenyl)-2-(2-cyano-3-phenylacrylamido)thiophene-3-carboxylic acid],< 10,–,–
"O=C(O)c1c(-c2ccc(Cl)cc2)csc1NC(=O)[C@@H]1CCc2ccccc2C1 [(R)-4-(4-chlorophenyl)-2-(1,2,3,4-tetrahydronaphthalene-2-carboxamido)thiophene-3-carboxylic acid]",< 10,–,–
O=C(O)c1c(-c2ccc(Cl)cc2)csc1NC(=O)[C@H](F)Cc1ccccc1Cl [(R)-4-(4-chlorophenyl)-2-(3-(2-chlorophenyl)-2-fluoropropanamido)thiophene-3-carboxylic acid],< 10,–,–
"O=C(O)c1c(-c2ccc(Cl)cc2)csc1NC(=O)[C@H]1CCc2ccccc2C1 [(S)-4-(4-chlorophenyl)-2-(1,2,3,4-tetrahydronaphthalene-2-carboxamido)thiophene-3-carboxylic acid]",< 10,–,–
O=C(O)c1c(-c2ccc(Cl)cc2)csc1NC(=O)[C@@H](F)Cc1ccccc1Cl [(S)-4-(4-chlorophenyl)-2-(3-(2-chlorophenyl)-2-fluoropropanamido)thiophene-3-carboxylic acid],< 10,–,–
O=C(Nc1scc(-c2ccc(Br)cc2)c1C(=O)O)/C(F)=C/c1ccccc1 [(Z)-4-(4-bromophenyl)-2-(2-fluoro-3-phenylacryl amido)thiophene-3-carboxylic acid],< 10,–,–
O=C(Nc1scc(-c2ccc(Cl)cc2)c1C(=O)O)/C(F)=C/c1ccccc1 [(Z)-4-(4-chlorophenyl)-2-(2-fluoro-3-phenylacryl amido)thiophene-3-carboxylic acid],< 10,–,–
O=C(Nc1scc(-c2ccc(Cl)cc2)c1C(=O)O)/C(F)=C/c1ccccc1Cl [(Z)-4-(4-chlorophenyl)-2-(3-(2-chlorophenyl)-2-fluoroacrylamido)thiophene-3-carboxylic acid],< 10,–,–
O=C(Nc1scc(-c2ccc(Br)cc2)c1C(=O)O)c1ccc(C(F)(F)F)nc1 [AA],–,1 to 10,–
O=C(Nc1scc(-c2cc3cccc(O)c3o2)c1C(=O)O)c1cc2cccc(O)c2o1 [AB],–,1 to 10,≤ 0.5
Cc1nnsc1C(=O)Nc1scc(-c2ccc(Br)cc2)c1C(=O)O [A],–,1 to 10,1 to 10
O=C(Nc1scc(-c2ccc(Br)cc2)c1C(=O)O)c1nc2cccc(F)c2o1 [B],–,≤ 0.5,≤ 0.5

Structure (SMILES),IC50 (JR251 or RBL cells) [µM],IC50 [1] [µM],IC50 (RBL-2H3 cells) [µM]
O=C(Nc1scc(-c2ccc(Br)cc2)c1C(=O)O)c1nc2c(F)cccc2o1 [C],–,≤ 0.5,≤ 0.5
O=C(Nc1scc(-c2ccc(Br)cc2)c1C(=O)O)c1cc2ccccn2n1 [Compound I],–,≤ 0.5,≤ 0.5
O=C(O)c1c(-c2ccc(Cl)cc2)csc1NC(=O)C(Cl)Cc1ccccc1 (stereo not shown) [D],–,≤ 0.5,≤ 0.5
CC(Cc1ccccc1)C(=O)Nc1scc(-c2ccc(Br)cc2)c1C(=O)O (stereo not shown) [E],–,≤ 0.5,≤ 0.5
Cc1ccc(-c2csc(NC(=O)c3cnc4ccccc4n3)c2C(=O)O)c(F)c1F [F],–,≤ 0.5,≤ 0.5
O=C(Nc1scc(-c2ccc(Cl)cc2)c1C(=O)O)c1nc2ccccc2s1 [G],–,≤ 0.5,≤ 0.5
COc1cc(C)c(-c2csc(NC(=O)c3cc4ccccc4o3)c2C(=O)O)cc1C [H],–,≤ 0.5,≤ 0.5
O=C(Nc1scc(-c2ccc(Cl)cc2)c1C(=O)O)c1cc2sccc2s1 [J],–,≤ 0.5,≤ 0.5
O=C(O)c1c(-c2ccc(Cl)cc2)csc1NC(=O)C1CCc2ccccc2C1 (stereo not shown) [K],–,≤ 0.5,≤ 0.5
COc1c(F)c(F)cc(C(=O)Nc2scc(-c3ccc(Br)cc3)c2C(=O)O)c1F [L],–,≤ 0.5,–
O=C(Nc1scc(-c2ccc(Cl)cc2)c1C(=O)O)c1ccc(C(F)(F)F)nc1 [M],–,1 to 10,–
NC(=O)c1c(-c2ccc(Br)cc2)csc1-n1c(C(=O)O)nc2ccccc21 [N-(4-(4-bromophenyl)-3-carbamoylthiophen-2-yl)-1H-benzo[d]imidazole-2-carboxylic acid],< 10,–,–
COc1cc(C)c(-c2csc(NC(=O)c3cc4ccccc4o3)c2C(=O)O)c(C)c1 [N],–,≤ 0.5,≤ 0.5
O=C(Nc1scc(-c2ccc(Cl)cc2)c1C(=O)O)c1cc2ccccn2n1 [O],–,≤ 0.5,≤ 0.5
O=C(Nc1scc(-c2ccc(Cl)cc2)c1C(=O)O)c1cnc2ccccc2n1 [P],–,≤ 0.5,≤ 0.5
O=C(Nc1scc(-c2ccc(Cl)cc2)c1C(=O)O)c1ccc2scnc2c1 [Q],–,≤ 0.5,–
O=C(Nc1scc(-c2ccc(Br)cc2)c1C(=O)O)OCc1ccccc1 [S],–,1 to 10,–
O=C(Nc1scc(-c2ccc(Cl)cc2)c1C(=O)O)c1cc(-c2ccccc2)on1 [T],–,0.5 to 1,–
O=C(Nc1scc(-c2ccc(Cl)cc2)c1C(=O)O)/C(F)=C/c1ccccc1Cl [U],–,1 to 10,–
O=C(Nc1scc(-c2ccc(Cl)cc2)c1C(=O)O)c1cc2ccccc2nn1 [Y],–,1 to 10,–
O=C(Nc1scc(-c2ccc(Br)cc2)c1C(=O)O)c1cn2ccccc2n1 [Z],–,1 to 10,–

# Reference: patent US8394848B2, “Compounds that modulate intracellular calcium” (Calcimedica, Inc., priority 2008, dated 2013)
